Experimental data reported in patent publication EP1972623A1, “Arylpyridazines as fungicides” (Bayer CropScience AG, priority 2007, dated 2008).

Legend:
[1] = logP determination via HPLC retention times (calibration with unbranched alkan-2-ones); type: physicochemical; conditions: HPLC on reversed-phase C 18 columns, EEC Directive 79/831 Annex V.A8; acidic aqueous mobile phase / acetonitrile, linear gradient 10% to 95% acetonitrile
Description: Die Kalibrierung wurde jeweils mit unverzweigten Alkan-2-onn (3 bis 16 Kohlenstoff Atome) mit bekannten IogP Werten durchgeführt (Bestimmung von den logP Werten über die Retentionszeiten durch lineare Interpolation zwischen zwei bestimmten Alkazionen). Die Lambda-max Werte wurden jeweils in den Maxima der Chromatographie-Signale durch UV Spektren zwischen 190nm und 400nm bestimmt.

Venturia inaequalis = test: Venturia test (apple) / protective; type: in vivo; conditions: 100 ppm Wirkstoff; apple plants sprayed protectively; evaluation 10 days after inoculation
Description: Venturia - Test (Apfel) / protektiv
(§1) Zur Herstellung einer zweckmäßigen Wirkstoffzubereitung vermischt man 1 Gewichtsteil Wirkstoff mit den angegebenen Mengen Lösungsmittel und Emulgator und verdünnt das Konzentrat mit Wasser auf die gewünschte Konzentration.
Zur Prüfung auf protektive Wirksamkeit werden junge Pflanzen mit der Wirkstoffzubereitung in der angegebenen Aufwandmenge besprüht. Nach Antrocknen des Spritzbelages werden die Pflanzen mit einer wäßrigen Konidiensuspension des Apfelschorferregers Venturia inaequalis inokuliert und verbleiben dann 1 Tag bei ca. 20°C und 100% relativer Luftfeuchtigkeit in einer Inkubations-kabine.
Die Pflanzen werden dann im Gewächshaus bei ca, 21°C und einer relativen Luftfeuchtigkeit von ca. 90% aufgestellt.
(§2) 10 Tage nach der Inokulation erfolgt die Auswertung. Dabei bedeutet 0% ein Wirkungsgrad, der demjenigen der Kontrolle entspricht, während ein Wirkungsgrad von 100% bedeutet, daß kein Befall beobachtet wird.

Botrytis cinerea = test: Botrytis test (bean) / protective; type: in vivo; conditions: 250 ppm Wirkstoff; bean plants sprayed protectively; lesion size 2 days after inoculation
Description: Botrytis - Test (Bohne) / protektiv
as §1
Zur Prüfung auf protektive Wirksamkeit werden junge Pflanzen mit der Wirkstoff-zubereitung in der angegebenen Aufwandmenge besprüht. Nach Antrocknen des Spritzbelages werden auf jedes Blatt 2 kleine mit Botrytis cinerea bewachsene Agarstückchen aufgelegt. Die inokulierten Pflanzen werden in einer abgedunkelten Kammer bei ca. 20°C und 100% relativer Luftfeuchtigkeit aufgestellt.
2 Tage nach der Inokulation wird die Größe der Befallsflecken auf den Blättern ausgewertet. Dabei bedeutet 0% ein Wirkungsgrad, der demjenigen der Kontrolle entspricht, während ein Wirkungsgrad von 100% bedeutet, daß kein Befall beobachtet wird.

[2] = system: Erysiphe graminis f.sp, hordei; test: Erysiphe test (barley) / protective; type: in vivo; conditions: 1000 ppm Wirkstoff; barley plants sprayed protectively; evaluation 7 days after inoculation
Description: Erysiphe-Test (Gerste) / protektiv
as §1
Zur Prüfung auf protektive Wirksamkeit besprüht man junge Pflanzen mit der Wirkstoffzubereitung in der angegebenen Aufwandmenge.
Nach Antrocknen des Spritzbelages werden die Pflanzen mit Sporen von Erysiphe graminis f.sp, hordei bestäubt.
Die Pflanzen werden in einem Gewächshaus bei einer Temperatur von ca. 20°C und einer relativen Luftfeuchtigkeit von ca. 80 % aufgestellt, um die Entwicklung von Mehltaupusteln zu begünstigen.
7 Tage nach der Inokulation erfolgt die Auswertung, Dabei bedeutet 0 % ein Wirkungsgrad, der demjenigen der Kontrolle entspricht, während ein Wirkungsgrad von 100 % bedeutet, daß kein Befall beobachtet wird.

Leptosphaeria nodorum = Leptosphaeria nodorum test (wheat) / protective; type: in vivo; conditions: 1000 ppm Wirkstoff; wheat plants sprayed protectively; evaluation 10 days after inoculation
Description: Leptosphaeria nodorum-Test (Weizen) / protektiv
(§3) Zur Herstellung einer zweckmäßigen Wirkstoffzubereitung vermischt man 1 Gewichtsteil Wirkstoff mit den angegebenen Mengen Lösungsmittel und Emulgator und verdünnt das Konzentrat mit Wasser auf die gewünschte Konzentration,
(§4) Zur Prüfung auf protektive Wirksamkeit werden junge Pflanzen mit der Wirkstoffzubereitung in der angegebenen Aufwandmenge besprüht Nach Antrocknen des Spritzbelages werden die Pflanzen mit einer Sporensuspension von Leptosphaeria nodorum besprüht, Die Pflanzen verbleiben 48 Stunden bei 20°C und 100 % relativer Luftfeuchtigkeit in einer Inkubationskabine.
Die Pflanzen werden in einem Gewächshaus bei einer Temperatur von ca. 20°C und einer relativen Luftfeuchtigkeit von 80 % aufgestellt.
as §2

Pyrenophora teres = Pyrenophora teres test (barley) / protective; type: in vivo; conditions: 1000 ppm Wirkstoff; barley plants sprayed protectively; evaluation 8 days after inoculation
Description: Pyrenophora teres-Test (Gerste) / protektiv
as §1
as §4, with “angegeben” for “angegebenen”, “besprüht,” for “besprüht”, “Konidiensuspension” for “Sporensuspension”, “Pyrenophora teres besprüht.” for “Leptosphaeria nodorum besprüht,”
Die Pflanzen werden dann in einem Gewächshaus bei einer Temperatur von ca. 20°C und relativen Luftfeuchtigkeit von ca. 80 % aufgestellt.
8 Tage nach der Inokulation erfolgt die Auswertung. Dabei bedeutet 0 % ein Wirkungsgrad, der demjenigen der Kontrolle entspricht, während ein Wirkungsgrad von 100 % bedeutet, daß kein Befall beobachtet wird, […]

[3] = system: Fusarium nivale (var. majus); test: Fusarium nivale (var. majus) test (wheat) / protective; type: in vivo; conditions: 1000 ppm Wirkstoff; wheat plants sprayed protectively; evaluation 6 days after inoculation
Description: Fusarium nivale (var. majus)-Test (Weizen) / protektiv
as §3
Zur Prüfung auf protektive Wirksamkeit werden junge Pflanzen mit der Wirkstoffzubereitung in der angegebenen Aufwandmenge besprüht. Nach Antrocknen des Spritzbelages werden die Pflanzen mit einer Konidiensuspension von Fusarium nivale (var. majus) besprüht.
Die Pflanzen werden in einem Gewächshaus unter lichtdurchlässigen Inkubationshauben bei einer Temperatur von ca.15°C und einer relativen Luftfeuchtigkeit von ca. 100 % aufgestellt.
6 Tage nach der Inokulation erfolgt die Auswertung. Dabei bedeutet 0% ein Wirkungsgrad, der demjenigen der Kontrolle entspricht, während ein Wirkungsgrad von 100% bedeutet, daß kein Befall beobachtet wird.

chromatographic logP [1] | SMILES | also measured
3.45 | Cc1nnc(Cl)c(-c2ccc(F)cc2Cl)c1-c1cccs1 [Beispiel 37] | Wirkungsgrad (Venturia inaequalis): ≥ 70%; Wirkungsgrad (Botrytis cinerea): ≥ 70%
4.16 | Cc1nnc(Cl)c(-c2c(F)cccc2Cl)c1-c1ccc(Cl)s1 [Beispiel 94] | Wirkungsgrad (Venturia inaequalis): ≥ 70%; Wirkungsgrad (Botrytis cinerea): ≥ 70%
3.12 | Cc1nnc(Cl)c(-c2c(F)cccc2F)c1-c1cccs1 [Beispiel 100] | Wirkungsgrad (Venturia inaequalis): ≥ 70%; Wirkungsgrad (Botrytis cinerea): ≥ 70%; Wirkungsgrad [2]: ≥ 70%; Wirkungsgrad (Leptosphaeria nodorum): ≥ 70%; Wirkungsgrad (Pyrenophora teres): ≥ 70%; Wirkungsgrad [3]: ≥ 70%
2.88 | Cc1ccc(-c2c(C)nnc(Cl)c2-c2c(F)cccc2F)nc1C [Beispiel 101] | Wirkungsgrad (Venturia inaequalis): ≥ 70%
3.84 | Cc1nnc(Cl)c(-c2c(F)cccc2F)c1-c1ccc(Cl)s1 [Beispiel 103] | Wirkungsgrad (Venturia inaequalis): ≥ 70%; Wirkungsgrad (Botrytis cinerea): ≥ 70%
3.29 | Cc1nnc(Cl)c(-c2ccccc2Cl)c1-c1cccs1 [compound 59] | 
4.11 | Cc1nnc(Cl)c(-c2c(F)cc(F)cc2F)c1-c1ccc(Cl)s1 [compound 67] | 
3.39 | Cc1nnc(Cl)c(-c2cc(F)c(F)cc2F)c1-c1cccs1 [compound 85] | 
4.01 | Cc1nnc(Cl)c(-c2cc(F)c(F)cc2F)c1-c1ccc(Cl)s1 [compound 86] | 
3.15 | Cc1ccc(-c2c(C)nnc(Cl)c2-c2cc(F)c(F)cc2F)nc1C [compound 87] | 
2.08 | Cc1nnc(Cl)c(-c2c(F)cccc2F)c1-c1ccncc1 [compound 102] | 
3.26 | Cc1ccc(-c2c(C)nnc(Cl)c2-c2c(F)cccc2F)o1 [compound 104] | 
2.51 | Cc1nnc(Cl)c(-c2c(F)cccc2F)c1-c1nccs1 [compound 105] | 
3.7 | Cc1nnc(Cl)c(-c2ccccc2F)c1-c1ccc(Cl)s1 [compound 118] | 
3.42 | Cc1nnc(Cl)c(-c2cc(F)ccc2F)c1-c1ccc(Cl)s1 [compound 119] | 
4.16 | Cc1nnc(Cl)c(-c2cc(Cl)ccc2F)c1-c1ccc(Cl)s1 [compound 120] | 
3.05 | Cc1nnc(Cl)c(-c2ccccc2F)c1-c1cccs1 [compound 121] | 
3.34 | Cc1nnc(Cl)c(-c2cccc(Cl)c2)c1-c1cccs1 [compound 172] | 
4.07 | Cc1nnc(Cl)c(-c2cccc(Cl)c2)c1-c1ccc(Cl)s1 [compound 173] | 
3.65 | COc1ccccc1-c1c(Cl)nnc(C)c1-c1ccc(Cl)s1 [compound 182] | 
